Molecules are shown by their SMILES. “Also recorded” adds a separate entry of the source.

One assay relates to FasL. Briefly: FasL mRNA expression by RT-PCR in treated YHES cells. It counts as cell-based, human. The procedure:
(§1) The YHES cells were harvested by trypsinization and seeded in 12-well at 5×10^4 cells/well plates and were pretreated with E2 and P as described above. […] Total RNA was isolated from treated cells using TRIzol reagent (Invitrogen, Carlsbad, Calif.) according to the manufacturer's instructions. The integrity of total RNA was inspected on an agarose gel. One microgram of total RNA from each sample was treated with DNase I to remove potential DNA contamination and then reverse-transcribed using Superscript II Reverse Transcriptase (Invitrogen). First-strand cDNA obtained from RNA samples was stored at −80° C. until use. To measure the mRNA expression levels of AR, PR-A, PR-B, Fas and FasL in each cell culture, semi-quantitative PCR analysis was performed.
(§2) Quantitative real-time RT-PCR was carried out on an ABI 7900 DNA sequencer (Applied Biosystems), and monitored by SYBR Green I (Qiagen, Valencia, Calif.). The PCR products of the expected size were visualized on a 0.8% agarose gel. The relative mRNA level of each gene was calculated using relative quantitation of gene expression (Applied Biosystems, Foster City, Calif.) with 18s as an endogenous control. The reproducibility of the quantitative measurements was evaluated by two independent cDNA syntheses. The means and standard deviations of the replicated measurements were calculated and presented as mean ±s.d.

Assay [1] relates to AR. Nature of the assay: Western blot of AR protein in treated YHES cells. The assay is classed as cell-based, human. To be noted: 16 hrs; TSA 10 μM, CDB 100 μM, NAC 10 mM. The procedure: Western blot analysis was performed to measure protein expression of β-actin, ERα, ERβ, and AR. […] Whole cell lysate was prepared as previously described (44) by using RIPA lysis buffer containing 50 mM Tris, pH 7.4, 150 mM NaCl, 12 mM EDTA, 1% Triton X-100, 0.5% sodium deoxycholate, and 0.1% SDS. To avoid degradation, a protease inhibitor cocktail III (Sigma) was added at 2%. Total protein was quantified using a BCA protein assay kit (Pierce, Rockford, Ill.). Ten microgram of total protein was separated by electrophoresis on 10% SDS-polyacrylamide gels. The protein was then transferred onto PVDF membranes (Milipore, Bedford, Mass.). […] The blot was then subsequently incubated with primary antibody rabbit anti-human ERα (Santa Cruz Biotechnology, CA), rabbit anti-human ERβ (Zymed Laboratories, South San Francisco, Calif.), rabbit anti-β-actin (Cell Signaling Technology, Beverly, Mass.), or rabbit ant-human AR (Santa Cruz Biotechnology, CA), respectively, in blocking solution (5% nonfat dry milk plus PBS) for 2 hr at room temperature. After washing with PBS plus 0.5% Tween-20, the membranes were then incubated with the secondary antibody goat anti-rabbit IgG (H+L)-HRP (Santa Cruz Biotechnology, CA) at 1:8000 dilution in blocking solution for 2 h at room temperature. […]
In general terms: In western blotting, separated proteins are transferred to a membrane and probed.

A further assay deals with Fas. Briefly: Fas mRNA expression by RT-PCR in treated YHES cells. The assay is classed as cell-based, human. To be noted: TSA 10 μM, time not stated. The procedure:
as §1, §2

Assay [2] deals with YHES cells pretreated with H2O2. Briefly: H2O2-induced cell proliferation, MTT assay. The assay is classed as cell-based, human. Conditions: 100 μM, H2O2 1 μM, 48 hours, vs H2O2 only. The procedure: MTT assay was performed after 48 hours of treatment.
(§3) The YHES cells were harvested by trypsinization and seeded in 96-well plate at ˜1×10^4 cells/well. The cells were allowed to attach to the plate for overnight at 37° C. with 5% C02 in a humidified incubator. Then they were pretreated with physiological concentration of E2 (10^-9M) and P (10^-7M) for 24 hr to maintain hormonal responsiveness. […] Cell growth was valuated by the MTT assay (ATCC, Manassas, Va.). MTT assay was performing according to the manufacturer's instructions, and in triplicate to generate mean values. Cell numbers in the untreated control were arbitrarily assigned as 1. The relative cell growth was expressed as fold increase/decrease relative to the control. Data were presented as mean values from three independently repeated experiments.
The addition of H202 was meant to mimic the oxidative stress as reported in endometriosis. […] RU486 suppressed cell proliferation by 75% at the concentration of 100 μM.
Background: Formazan colour is commonly taken as a measure of viable cells.

Another assay relates to PR-A. Nature of the assay: PR-A mRNA expression by RT-PCR in treated YHES cells. It counts as cell-based, human. The procedure: as §1, §2
In the next assay the test system is YHES cells. Briefly: Long-term culture and morphology after treatment. The assay is classed as cell-based, human. From the text:
The micrographs of the first two rows were taken using 20× magnification, and those of the third row were taken using 10× magnification. The micrographs of the first row and the first two micrographs of second row were obtained using differential inference contrast (DIC) optic; the others were obtained without the DIC optic. […]

Another assay has as its system PR-B. Briefly: PR-B mRNA expression by RT-PCR in treated YHES cells. The assay is classed as cell-based, human. The procedure: as §1, §2
Assay [3] has as its system endometrial stromal cells. Conditions: in vitro; cited from earlier work.
In a further assay the test system is endometriotic cells. Nature of the assay: Sensitivity of endometriotic versus endometrial cells to TSA (unpublished observation). It counts as cell-based. Conditions: Wu and Guo.
Assay [4] has as its system AR. Nature of the assay: AR mRNA expression by RT-PCR in treated YHES cells. The assay is classed as cell-based, human. The procedure:
as §1, §2

For another assay, the system named is COX-2. Conditions: cited from earlier work.
A further assay concerns endometrial cells. Conditions: immortalized human endometrial stromal cells; cited from earlier work.
The test system of assay [5] is YHES cells (immortalized human endometrial stromal cell line). Briefly: MTT cell proliferation assay in YHES cells. It counts as cell-based. Conditions: 48 hr. The procedure:
An immortalized human endometrial stromal cell line was maintained following Krikun et al. (Krikun et al. 2004 Endocrinology 145:2291-6). Cells were maintained in phenol red-free DMEM/F12 (Gibco, CA) medium supplemented with 10% charcoal-dextran stripped FBS (Biomeda, CA), 1 μl/ml sodium pyruvate (Gibco, CA) and 1× Pen/Strep/Fungizone (Gibco, CA), at 37° C. with 5% C02 in a humidified incubator.
as §3

[6] abbreviates: 8 h, 18 h and 36 h, TSA 10 μM, CDB 100 μM, NAC 10 mM, semi-quantitative RT-PCR.

In the case of `CC(/C=C/C(=O)NO)=C\[C@@H](C)C(=O)c1ccc(N(C)C)cc1` [TSA, trichostatin A], in the assay on FasL (18 h after the treatment), the “increase in FasL expression as compared with the controls” value is on record as about 25 fold. Further, the FasL expression result with FasL (especially 18 and 36 h after the treatment) is “dramatic increase”. In addition, the “AR protein level vs control group” value in the assay with AR [1] is listed as “highest expression”. Moreover, the “Fas expression vs control group” value with Fas is on record as “lower than the control group”. In addition, the “suppression of H2O2-induced cell proliferation” value in [2] came out at 50%. Moreover, the “PR-A mRNA expression level vs untreated control” value in the assay on PR-A (setting [6]) was “increased”. In addition, the “PR-A expression, comparison among treatment groups” value with PR-A (overall, real-time RT-PCR) was “greatest increase”. Also, the cell morphology entry with YHES cells (24 h after the treatment) is given as “signs of apparent apoptosis”. Moreover, in the assay with YHES cells (four weeks after the treatment, TSA and RU486 at 100 μM), the “recovery judged by morphology” value is on record as “did not recover”. Also, the “PR-B mRNA expression level vs untreated control” value with PR-B (setting [6]) is “increased”. Also, in the assay on PR-B (overall, real-time RT-PCR), the “PR-B expression, comparison among treatment groups” value is recorded as “greatest increase”. Also, the effect on proliferation result in assay [3] is “suppresses proliferation of endometrial stromal cells; also recorded: suppressing proliferation of endometrial and endometriotic cells in vitro”. Moreover, the “sensitivity of endometriotic cells relative to endometrial cells” value with endometriotic cells is recorded as “over 100 fold”. For the same compound, the “AR mRNA expression level vs untreated control” value in the assay on AR [4] (setting [6]) is listed as “increased”. For the same compound, in the assay with AR [4] (36 h of treatment, real-time RT-PCR), the “decrease of AR expression as compared with the control group” value is “about 50%”. Moreover, the “effect on IL-1β-induced COX-2 expression” value in the assay on COX-2 is on record as “suppresses IL-1β-induced COX-2 expression”. In addition, the “effect on cell cycle” value in the assay on endometrial cells is “induce cell cycle arrest”. The “reduction of cell proliferation as compared with controls” value in assay [5] (100 μM) is on record as about 90%. The “effect on cell proliferation” value in assay [5] (across 100, 10, 1, 0.1 μM) is “strong concentration-dependent antiproliferative effect”.

(Values after patent US20070287676A1, “Diagnosis and treatment of endometriosis” (priority 2006, published 2007).)
